# Experimental data reported in US9618511B2, “Methods and compositions for treating alzheimer's disease” (Eleanore Bennett Charitable Trust #2, priority 2008, dated 2017).
# “Also recorded” adds a separate entry of the source.
# Experiments:
# [1] = system: C2C12 myotubes; experiment: Extracellular peptide or insulin treatment of C2C12 myotubes, western blot of Akt signaling; type: cell-based, mouse
# Description: The prior cell-based and in vitro experiments are relevant to […] Aβ effects. To determine the specificity of Akt inhibition by […] Aβ, C2C12 myotubes were cultured, and treated with extracellular Aβ25-35, Aβ35-25, Aβ1-42 and Aβ42-1 for 24 hours. In the last 30 minutes before harvest, insulin was added (0.1 μg/ml). While p-Akt (Ser473) and p-GSK-3 α/β levels were increased by insulin treatment (FIG. 9C, lane 2 vs. 1), they were not affected by any of the Aβ treatments. […] There were also no significant changes in p-Akt (Ser473) levels (data not shown). […] PDK itself is subject to phosphorylation (e.g., at Ser 241) and several authors feel that it is constitutively phosphorylated and thus ‘primed’ (Casamayor, A., Morrice, N. A., and Alessi, D. R., 1999, Phosphorylation of Ser-241 is essential for the activity of 3-phosphoinositide-dependent protein kinase-1: identification of five sites of phosphorylation in vivo, Biochem J 342 (Pt 2):287-292). The experiments described herein indicate that p-PDK levels are constitutively high in C2C12 cells and not boosted further by insulin action (FIG. 9E, top). p-PDK levels were not modulated by extracellular (FIG. 9E lower panel) or intracellular Aβ expression (not shown).
# In FIG. 9C C2C12 myotubes were bath exposed to AP25-35, reverse AP35-25, AP1-42 and reverse Aβ42-1 peptides for 24 hours before treatment with insulin (0.1 μg/ml, 15 min) Whole cell extracts were subjected to Western analysis for p-Akt (Ser473) (Akt activation) and total Akt levels (top) as well as for endogenous levels of pGSK-3a/p, indicative of Akt activity, and total GSK-3β (lower two blots). […] The increase was not affected by pre-treatment with extracellular AR.
# In FIG. 9D C2C12 myotube cultures were exposed to increasing doses of A[i1-42 (0, 10 and 25 μM) for 2 hours before treatment with insulin (0, 20, 100 and 500 ng/ml) for 15 min Harvested cell extracts were used for western blot for p-Akt (Thr308).
# [2] = system: PI3K (p85) from NIH/3T3 cells; experiment: PI3K activity assay (conversion of PI to PI3P, TLC); type: biochemical
# Description: PI3K was immunoprecipitated (IP) from the NIH/3T3 cell lysates with rabbit anti-p85 subunit (Upstate). The IPs were washed twice with cold phosphate buffered saline (PBS) buffer containing 0.5% NP-40 and 0.1 mM Na3VO4, and then twice with THE buffer [Tris.HCl pH7.4 20 mM, NaCl 100 mM, EGTA 0.5 mM]. PI3K activity was determined by incubating the beads with kinase buffer [6.5 mM HEPES (pH 7.4), 10 mM MgCl2] with 50 μM ATP, 2 μCi [y-32P]ATP, 4 μg of 3-sn-Phosphatidyl-L-serine (PS) and 2 μg of D-myo-Phosphatidylinositol (PtdIns; PI) (Echelon, Salt Lake City, Utah) for 10 min at room temperature. The reactions were stopped by adding 50 μl of 4N HCl. Phospholipids were extracted using 100 μl of CHCl3/methanol (1:1). […] The conversion of PI to PI3P was detected and quantified using a Storm Phosphorimager (GE Healthcare).
# Phosphatidylinositol (PI), including phosphatidylserine (PS) as a carrier, was used as a substrate for PI3K activity assay. [y-32P]ATP and kinase buffer were added to the IP and lipid mixture at room temperature to start the reaction. Phospholipids were extracted in 100 μl of CHCl3/methanol and separated by TLC. Bar charts give quantified results using a phosphorimager.
# [3] = biological target: T1, c-AMP-dependent protein kinase A (PKA) (Bos taurus, UniProt P00517); experiment: PKA activity assay (GSK-3 substrate phosphorylation); type: biochemical, bovine; settings: Aβ 10 μM, PKA 2U
# T1 construct: purified c-AMP-dependent protein kinase A (PKA, Promega) from bovine heart; purchased Promega; host or cells: bovine heart (tissue-purified)
# Description: Recombinant Phosphatase and Tensin Homolog (PTEN; R & D Systems, Minneapolis, Minn.), purified PP2A from human erythrocytes (Upstate, Temecula, Calif.), and purified c-AMP-dependent protein kinase A (PKA, Promega) from bovine heart were stored at −20 and used freshly. PKA inhibitor (PKI, Biosource) and PI3K inhibitor, LY294002 (Cell Signaling) were diluted to 20 or 10 μM in kinase buffer. Antibodies used were: anti-cdk4 (polyclonal), Akt, Actin (polyclonal), and IRa (polyclonal) (Santa Cruz); p-Akt (polyclonal; Ser473 and Thr308), p-GSK-3α/0 (polyclonal; Ser21/9), GSK-30 (polyclonal), IRP (monoclonal), p-Tyrosine (monoclonal), and p-PDK (polyclonal, Ser241) (Cell Signaling, Danvers, Mass.); IRS-1 (monoclonal) and PDK (monoclonal) (BD Biosciences); PI3K (polyclonal, p85) and SGK (polyclonal) (Upstate, Temecula, Calif.); Rictor (polyclonal) (Bethyl Laboratories, Montgomery, Tex.); 6E10 (monoclonal; Covance Co.); R1282 (polyclonal; gift from Dr. Selkoe's lab). Phospholipase A2 (PLA2) was from Sigma. The lipids phosphatidylinositol-tris-3,4,5-phosphate, dipalmitoyl, (PIP3) (Matreya LLC, Pleasant Gap, Pa.), and D-myo-Phosphatidylinositol (PtdIns; PI) (Echelon, Salt Lake City, Utah) were diluted into water or CHCl3:MeOH:H2O (1:2:0.8), aliquoted into 100 μg vials and stored at −20° C. […]
substance,measurement,setting,value
"Aβ42: synthetic 42 amino acid β-amyloid peptide, forward sequence, freshly prepared, predominantly monomeric (BioSource)",p-PDK (Ser241) levels,"[1]; extracellular 1-100 nM, 2 or 24 hours, then insulin 500 ng/ml 30 min",remain unaffected
same,p-Akt (Ser473) and p-GSK-3 α/β levels after insulin,"[1]; extracellular peptide 24 hours, then insulin 0.1 μg/ml",not affected
same,"p-Akt (Thr308) levels, insulin dose response","[1]; extracellular, up to 25 μM in the media, insulin 20, 100, 500 ng/ml",did not affect
same,PI3K activity,[2]; 10 μM peptide,did not; also recorded: no effect
same,PI3K activity,"[2]; dose-response: Aβ1-42 0.05, 0.5, 5 μM, reverse Aβ42-1 5 μM",no effect
same,PKA phosphorylation of GSK-3 α/β substrate,[3],not inhibited
